According to patent US20080069815A1, “ANTI-OSTEOPONTIN ANTIBODY AND USE THEREOF” (IMMUNO-BIOLOGICAL LABORATORIES CO., LTD., priority 2001, published 2008):

How the values were obtained:
[1] = system: mouse collagen arthritis model; experiment: Mouse collagen arthritis model (arthritogenic antibody cocktail/LPS); type: in vivo; conditions: for Arthritis score: 3.2 mg/kg orally once daily; for Volume of leg edema / Body weight change / Quantity of feed intake: 3.2 mg/kg
Description: For arthritis induction, an arthritogenic antibody cocktail (under the trade name of a cocktail for arthritis, Arthrogen-CIA® mAb, Arthritogenic mAb cocktail; manufactured by Iwai Chemical Pharmaceutical Co., Ltd.) recognizing four epitopes specific to collagen was used. To a mouse was intravenously administered the arthritogenic cocktail; 3 days later, LPS (100 μg) was intraperitoneally administered to thereby elicit arthritis. Arthritis was observed on day 3 after LPS dosing, which reached maximum on day 6.
Immediately before LPS dosing and 3 days later, the M5 antibody was intravenously administered at a dose of 40 μg, 150 μg or 400 μg. As the control group, a rabbit IgG-dosed group (at a dose of 400 μg) was arranged. Additionally, the anti-mouse TNF-α antibody was intravenously administered at a dose of 200 μg/mouse immediately before LPS administration and 3 days later. As the control group, a rat IgG-dosed group (at a dose of 200 μg) was arranged. Further, MTX was orally given (at a dose of 3.2 mg/kg) once daily on the very day of LPS dosing and thereafter. Then, MTX dissolved in 5 ml of 0.5% methyl cellulose solution was used. For the control group, 5 ml of 0.5% methyl cellulose solution was arranged.
Assessment was done per one group of five animals, concerning four items, namely arthritis score, leg edema, body weight change and feed intake.

[2] = system: α9-transformed SW480 cell adhesion to vitronectin; experiment: Adhesion of α9-transformed SW480 cell to vitronectin; type: cell-based, human; conditions: 1 μg/ml vitronectin; 200 μM peptide; FIG. 2A
[3] = system: murine NIH3T3 cell adhesion to mOPN/de-GST; experiment: Inhibition of NIH3T3 cell adhesion to murine OPN (mOPN/de-GST); type: cell-based, mouse; conditions: peptide 100 μg/ml; FIG. 7
Excerpt: It was examined by the method described in the reference (S. Kon et al., (2002): J. Cell. Biochem., 84(2), 420-432) as to whether or not the M5 antibody might inhibit cell adhesion to OPN. As the OPN, the full-length murine OPN was used, from which the GST moiety had preliminarily been removed with PreScission protease (Amersham Pharmacia Biotech, Tokyo, Japan) (referred to as “mOPN/de-GST” hereinafter) was used. As the cell, murine NIH3T3 cell was used.

[4] = system: human fibroblast TIG-7 adhesion to OPN; experiment: Inhibition of TIG-7 cell adhesion to OPN (CHO/OPN-a coated plate); type: cell-based; conditions: peptide 100 μg/ml; FIG. 1A
Description: It was examined by the following method as to whether or not the monoclonal antibodies inhibited cell adhesion to OPN. First, a 96-well plate was precoated with various concentrations of the CHO/OPN-a at 4° C. overnight, which was then treated with 0.5% BSA in PBS under conditions of 37° C. for 10 minutes, so as to block non-specific adhesion. A human fibroblast TIG-7 or SW480 cell transformed with the cDNA of an integrin subunit α9 (referred to as “α9-transformed SW480 cell” hereinafter) was suspended in D-MEM containing 0.25% BSA; 200 μl of the resulting cell suspension (at a cell concentration of 5×10^4 cells/well) was injected in a 96-well plate precoated with the CHO/OPN-a or nOPN, in the presence or absence of various concentrations of the monoclonal antibodies or synthetic peptides, for incubation at 37° C. for one hour.
The culture medium was discarded from the plate, and all the wells were rinsed twice with D-MEM containing 0.25% BSA. The adherent cells were fixed and stained with 0.5% crystal violet in 20% methanol for 30 minutes.
All the wells were rinsed three times with water, and the adherent cells were then solubilized into 20% acetic acid. The resulting supernatant recovered from each well was analyzed with an immunoreader, to measure the absorbance at 590 nm to determine the relative count of the cells adhering to the well. […]

Compound	Overall effect in mouse arthritis model (arthritis score, onset of arthritis, leg edema) [1]	Arthritis score ([1]; day 3)	Arthritis score ([1]; day 4)	Arthritis score ([1]; day 5)	Arthritis score ([1]; day 6)	Volume of leg edema ([1]; Foreleg)	Volume of leg edema ([1]; Hind leg)	Body weight change ([1]; day 0 to day 3 post-dosing)	Quantity of feed intake ([1]; day 0 to day 3 post-dosing)	Body weight change ([1]; day 3 to day 6 post-dosing)	Quantity of feed intake ([1]; day 3 to day 6 post-dosing)	Inhibition of adhesion between vitronectin and α9-transformed SW480 cell by peptide [2]	Inhibition of NIH3T3 adhesion to mOPN/de-GST by peptide [3]	Inhibition of TIG-7 adhesion to OPN by peptide [4]
CN(Cc1cnc2nc(N)nc(N)c2n1)c1ccc(C(=O)N[C@@H](CCC(=O)O)C(=O)O)cc1 [MTX]	almost no pharmaceutical efficacy	0.8 ± 0.4	1.8 ± 0.7	6.0 ± 0.6	6.0 ± 0.6	0.047 ± 0.003 mL	0.132 ± 0.003 mL	-1.5 g	0.8 g/mouse/day	-1.8 g	2.1 g/mouse/day	–	–	–
GRGDSP	–	–	–	–	–	–	–	–	–	–	–	inhibited	apparently inhibited	apparently inhibited
